Experimental data as given in US10385067B2, “Sodium (2R,5S,13aR)-7,9-dioxo-10-((2,4,6-trifluorobenzyl)carbamoyl)-2,3,4,5,7,9,13,13a-octahydro-2,5-methanopyrido[1′,2′:4,5]pyrazino[2,1-b][1,3]oxazepin-8-olate” (Gilead Sciences, Inc., priority 2014, dated 2019).

Tests used:
[1] = tested on: HIV; details: as discussed in co-pending U.S. Ser. No. 14/133,855 and PCT US2013/076367; cited from earlier work
[2] = Stability on storage under accelerated conditions; format: physicochemical; details: after four weeks of storage under accelerated conditions
Method: The stability of sodium (2R,5S,13aR)-7,9-dioxo-10-((2,4,6-trifluorobenzyl)carbamoyl)-2,3,4,5,7,9,13,13a-octahydro-2,5-methanopyrido[1′,2′:4,5]pyrazino[2,1-b][1,3]oxazepin-8-olate Form I was tested. […] In Table 5, AN refers to area normalization and is the relative peak area of the active with respect to other impurities and components contained in the sample. LS refers to labile strength and is the amount of active present relative to the theoretical amount.

Compound | anti-viral activity [1] | stability [2]
O=C(NCc1c(F)cc(F)cc1F)c1cn2c(c(O)c1=O)C(=O)N1[C@H]3CC[C@H](C3)O[C@@H]1C2 [Formula I, (2R,5S,13aR)-8-hydroxy-7,9-dioxo-N-(2,4,6-trifluorobenzyl)-2,3,4,5,7,9,13,13a-octahydro-2,5-methanopyrido[1′,2′:4,5]pyrazino[2,1-b][1,3]oxazepine-10-carboxamide] | demonstrates anti-viral activity | –
O=C(NCc1c(F)cc(F)cc1F)c1cn2c(c([O-])c1=O)C(=O)N1[C@H]3CC[C@H](C3)O[C@@H]1C2.[Na+] [Formula II Form I, sodium (2R,5S,13aR)-7,9-dioxo-10-((2,4,6-trifluorobenzyl)carbamoyl)-2,3,4,5,7,9,13,13a-octahydro-2,5-methanopyrido[1′,2′:4,5]pyrazino[2,1-b][1,3]oxazepin-8-olate] | – | stable
